Source: patent publication US20100098791A1, “COMPOSITION FOR TREATING XEROSTOMIA OR DRY MOUTH” (priority 2007, published 2010)

Assay: Dentin loss under extreme erosion conditions, composition versus its three ingredients separately (Example 8)
Parameters: species or system cow
Details: 10 cycles: 5 min pre-treatment, 1% citric acid pH 2.3 for 3 min
Description: The protective capacity of a mouthwash formulated with olive oil, trimethylglycine and xylitol in dentin subjected to extreme erosion conditions was analysed, compared to that of aqueous solutions of the three ingredients separately in the same concentrations used in the mouthwash tested. For the evaluation of effects a control was included consisting of distilled water.
Incisive teeth extracted from a cow's jaw were used, which were immersed in a 0.5% thymol solution at room temperature. The teeth were sectioned at the cementum-enamel junction by means of a water-cooled diamond scalpel (Exakt, Norderstedt, Germany), and the crowns and roots were embedded in acrylic resin cylinders (Paladur, Heraeus Kulzer, Wehrheim, Germany). Radicular cementum was completely eliminated. […]
Dentin loss was quantified performing profile or profilometric measurements (Mahr Perthometer, Göttingen, Germany). […] After the experiment the adhesive tapes were removed and the samples were analysed again. The average depth of the eroded surfaces was thus calculated with respect to basic surface profiles by means of specific software (Mahr Perthometer Concept 7.0, Mahr, Göttingen, Germany).
Dentin loss was calculated (mean±standard deviation) for each group and statistically analysed by Student's t test followed by Bonferroni's t test for multiple comparisons (Statistica 6.0, Statsoft, Tulsa, USA).

Compound | protective effect on dentin against erosion
OC[C@@H](O)[C@H](O)[C@@H](O)CO [1% xylitol solution, xylitol] | did not demonstrate any protective effect
C[N+](C)(C)CC(=O)[O-] [2% trimethylglycine solution, trimethylglycine] | did not demonstrate any protective effect
